Experimental data reported in patent publication EP4119145A1, “COMPOUNDS FOR THE TREATMENT OF COVID-19” (priority 2021, dated 2023).
Structures can show the parent of a compound that is named as a salt. Where two headings read alike, the source gives them in different places.

Molecular target: SARS-CoV-2 PL-Pro (Severe acute respiratory syndrome coronavirus 2, UniProt P0DTD1)
Experiment: biochemical
Conditions: for inhibition at 20 µM: read-out: PLPro Inhibition [%] Primary Screen (20 µM)
[1] = dose response, 0.014 µM to 20 µM, 8 concentration points, read-out: IC50

Compound	IC50 [1] [nM]	inhibition at 20 µM [%]	IC50 [nM]	PLPro Inhibition [%] Primary Screen (20 µM) [%]	IC50 (read-out: IC50) [nM]
CC1(C)CCC2=C(O1)c1ccccc1C(=O)C2=O [Compound 10, 2,2-Dimethyl-3,4-dihydro-2H-benzo[h]1-benzopyrane-5,6-dione]	4430	146	–	–	–
Cc1ccc(NC2=CC(=O)c3sc(C)nc3C2=O)cc1 [Compound 13, 2-methyl-5-(4-methylanilino)-1,3-benzothiazole-4,7-dione]	260	160	–	–	–
Cc1c(S(=O)(=O)O)oc2c1C(=O)C(=O)c1c-2ccc2c1CCCC2(C)C [Compound 8, 1,6,6-Trimethyl-10,11-dioxo-6,7,8,9,10,11-hexahydrophenanthro[1,2-b]furan-2-sulfonic acid sodium salt]	–	124	–	–	–
O=C1C(Cl)=C(NCCN2CCOCC2)C(=O)c2ncccc21 [Compound 12, 6-Chloro-7-[2-(4-morpholinyl)ethylamino]-5,8-dihydroquinoline-5,8-dione]	–	151	220	–	–
O=C1C(=O)c2cc([N+](=O)[O-])ccc2-c2ccccc21 [Compound 4, 2-Nitrophenanthrene-9,10-dione]	129	186	–	–	–
CC(C)(C)C(=O)Nc1ccc2c(c1)C(=O)C(=O)c1ccccc1-2 [Compound 5, N-(9,10-Dioxo-9,10-dihydrophenanthren-2-yl)-2,2-dimethylpropionamide]	246	184	–	–	–
CC1(C)C(=O)N=C2C1=C(O)C(=O)c1ccccc12 [Compound 9, 4-Hydroxy-3,3-dimethyl-3,5-dihydro-2H-benzobenzo[g]indole-2,5-dione]	390	155	–	–	–
CC[N+](C)(CC)CCC[n+]1c(-c2ccccc2)c2cc(N)ccc2c2ccc(N)cc21 [Compound 14, 3,8-Diamino-5-(3-(diethyl(methyl)ammonio)propyl)-6-phenylphenanthridin-5-ium iodide]	–	136	240	–	–
Cc1cccc2c1ccc1c3c(c(=O)oc(=O)c12)[C@@H](C)CO3 [Compound 11, (4R)-4,9-Dimethyl-4,5-dihydrofuro[3,2-c]naphtho[2,1-e]oxepine-1,3-dione]	920	80.7	–	–	–
Cc1nc2c(=O)n(C)c(=O)nc-2n(C)n1 [Compound 2, 1,3,6-Trimethylpyrimido[5,4-e][1,2,4]triazine-5,7(1H,6H)-dione]	74	181	–	–	–
O=C1C(=O)c2ccccc2-c2ccccc21 [Compound 6, phenanthrene-9,10-dione]	504	181	–	–	–
cobalt(3+);[(2R,3S,4R,5S)-5-(5,6-dimethylbenzimidazol-1-yl)-4-hydroxy-2-(hydroxymethyl)oxolan-3-yl][(2R)-1-[3-[(1R,2R,3R,4Z,7S,9Z,12S,13S,14Z,17S,18S,19R)-2,13,18-tris(2-amino-2-oxoethyl)-7,12,17-tris(3-amino-3-oxopropyl)-3,5,8,8,13,15,18,19-octamethyl-2,7,12,17-tetrahydro-1H-corrin-21-id-3-yl]propanoylamino]propan-2-yl] phosphate;cyanide [Compound 17]	–	–	–	141.27	2900
CCOC(=O)C1=C(C)N=c2s/c(=C\c3ccc(OCC(=O)O)cc3)c(=O)n2C1c1ccc(SC)cc1 (centres unmarked) [Compound 15, 2-[4-[(Z)-[6-ethoxycarbonyl-7-methyl-5-(4-methylsulfanylphenyl)-3-oxo-5H-[1,3]thiazolo[3,2-a]pyrimidin-2-ylidene]methyl]phenoxy]acetic acid]	3140	82.8	–	–	–
CC(=NNC(=N)N)c1cc(NC(=O)CCCCCCCCC(=O)Nc2cc(C(C)=NNC(=N)N)cc(C(C)=NNC(=N)N)c2)cc(C(C)=NNC(=N)N)c1 [Compound 16, N,N'-Bis[3,5-bis[1-(2-amidinohydrazono)ethyl]phenyl]decanediamide]	1210	140	–	–	–
Cc1cc2nc3c(=O)[nH]c(=O)nc-3n(C)c2cc1C=O [Compound 3, 7,10-Dimethyl-2,4-dioxo-2,3,4,10-tetrahydrobenzo[g]pteridine-8-carbaldehyde]	401	119	–	–	–
